{
  "source": "patent US20040106545A1",
  "about": "“Compounds and methods for modulating cell adhesion” (priority 1996, published 2004)",
  "key": {"mice": {"tested_on": "mice", "assay": "Acute toxicity study in mice", "assay_type": "in vivo, mouse", "method": "Mice were injected intraperitoneally for seven consecutive days with 20 mg/kg of N—Ac-CHAVC-NH2 (SEQ ID NO:10) and sacrificed 24 hr after treatment.\nMice were injected intraperitoneally with 125 mg/kg of N—Ac-CHAVC-NH2 (SEQ ID NO:10) for three consecutive days and sacrificed on the fourth day.\nMice were injected intravenously with either a saline control or 200 mg/kg of N—Ac-CHAVC-NH2 (SEQ ID NO:10). Mice were sacrificed after 24 hours, or allowed a 14-day recovery period."}, "Rat": {"tested_on": "Rat", "assay": "Acute toxicity study in rat", "assay_type": "in vivo", "conditions": "intravenously, 100 mg/kg"}, "SKOV3 tumors": {"tested_on": "SKOV3 tumors", "assay": "Human ovarian (SKOV3) tumors grown in nude mice: tumor volume and histology", "assay_type": "in vivo, mouse", "method": "SKOV3 cells (ATCC) were grown to 70% confluence in Minimum Essential Medium (Life Technologies, Grand Island, N.Y.) supplemented with 10% Fetal Bovine Serum (Wisent, St. Bruno, Quebec) in a humidified atmosphere containing 5% CO2. Cells were then dissociated with 0.02% PBS/EDTA. Total cell count and viable cell number was determined by trypan blue stain and a hemacytometer.\nApproximately 1×10^7 cells were resuspended in 400 μl saline and injected in 6-week-old CD-1 nude mice (female, Charles River) subcutaneously. After 20 days of continuous tumor growth, tumor size was about 100 mm^3. The tumor-bearing animals were then injected intraperitoneally every day for 4 consecutive days with 20 mg/kg of the representative peptide modulating agent N—Ac-CHAVC-NH2 (SEQ ID NO:10) and saline, for experimental and control respectively. Mice were sacrificed by cervical dislocation 4 days after final injection.\nTumor tissue was dissected and fixed in PBS with 4% paraformaldehyde for 48 hours. Specimens were then dehydrated in a series of alcohol incubations, and embedded in paraffin wax. Tissues were sectioned, rehydrated and stained with hematoxylin/eosin for morphological purposes. Representative sections obtained from treated and untreated mice are shown in FIGS. 28B and 28A, respectively.\nWithin similar experiments, tumor-bearing nude mice as described above were injected intraperitoneally with 2 mg/kg of the representative peptide modulating agent N—Ac-CHAVC-NH2 (SEQ ID NO:10) and saline, for experimental and control respectively. Injections were performed every day for 4 days. Mice were sacrificed 24 hours after the last injection. Tumor tissue was fixed, sectioned and stained as described above. Representative sections obtained from treated and untreated mice are shown in FIGS. 30A and 30B, respectively.\nIn a similar study, the effect of N—Ac-CHAVC-NH2 (SEQ ID NO:10) on ovarian tumor growth was evaluated at 2 mg/kg and 0.2 mg/kg. Mice were treated as described above with saline alone, 2 mg/kg peptide or 0.2 mg/kg peptide once per day for 5 days. The percent change in tumor volume (relative to the tumor size at day 1) was determined."}, "[1]": {"tested_on": "MKL-F cells, breast cancer tumors", "assay": "Breast cancer tumors grown in nude mice", "assay_type": "in vivo, mouse", "method": "Breast cancer tumors were also grown in nude mice, as described above. After implanting tumor cells into the mammary fat pad, mice were injected once daily for four days with either the representative modulating agent N—Ac-CHAVC-NH2 (SEQ ID NO:10) or saline as a control. Mice were sacrificed 24 hours after the last injection, and tumors were photographed. […] These tumors are well vascularized.\nMKL-F cells were injected into mammary fat pad, as described above, and the tumors were grown for 21 days before injection. Mice were then injected once daily for four days with either 20 mg/kg of the representative modulating agent N—Ac-CHAVC-NH2 (SEQ ID NO:10) or saline as a control. Mice were sacrificed 21 days after the last injection. Tumor volume was measured at day 18 following injection of cells, day 22 (following the first injection of modulating agent), and days 29, 32, 36, 39 and 42."}, "[2]": {"tested_on": "Human saphenous vein vascular smooth muscle cells", "assay": "Vascular smooth muscle cell migration after scrape-wounding", "assay_type": "cell-based", "conditions": "1 mg/mL, 24 hours after wounding", "method": "An illustrative assay for evaluating the modulating of vascular smooth muscle cell migration may be performed as follows (as described in Example 23). Human saphenous vein vascular smooth muscle cells are explanted from surplus segments of vein from patients undergoing coronary artery bypass surgery. Cells are maintained in Dulbecco's modified essential medium supplemented with penicillin, streptomycin, L-glutamine and 10% fetal calf serum and are grown to confluence on glass coverslips in the presence or absence of collagen type I. The cell layer is then subjected to scrape-wounding by drawing a fine cell scraper across the coverslip. Proliferation of the vascular smooth muscle cells is inhibited by addition of 2 mM hydroxyurea to the culture media. […] The migratory capacity of the vascular smooth muscle cells is assessed by measuring the distance of migration into the wound area (outermost 100 μm from the wound) using image analysis software at 24 hours after wounding.\nHuman saphenous vein vascular smooth muscle cells were explanted from surplus segments of vein from patients undergoing coronary artery bypass surgery. […] The migratory capacity of the vascular smooth muscle cells was assessed by measuring the distance of migration into the wound area (outermost 100 μm from the wound) using image analysis software at 24 hours after wounding."}, "[3]": {"tested_on": "Human saphenous vein vascular smooth muscle cells", "assay": "Vascular smooth muscle cell apoptosis at migrating wound edge, in situ end labeling", "assay_type": "cell-based", "conditions": "1 mg/mL, 24 hours after wounding, n=4, p<0.05", "method": "Human saphenous vein vascular smooth muscle cells were explanted from surplus segments of vein from patients undergoing coronary artery bypass surgery. Cells were maintained in Dulbecco's modified essential medium supplemented with […], 2 mmol/L L-glutamine and 10% fetal calf serum and were grown to confluence on glass coverslips. The cell layer was then subjected to scrape-wounding by drawing a fine cell scraper across the coverslip. Proliferation of the vascular smooth muscle cells was inhibited by addition of 2 mM hydroxyurea to the culture media. Vascular smooth muscle cells that are treated in this manner respond to the wounding of the confluent monolayer by migrating into the wound (Hammerle et al (1991) Vasa 20, 207-215). The percentage of apoptotic cells in the migrating edge (outermost 100 μm from the wound) was assessed by in situ end labeling at 24 hours after wounding (as in George et al (2001) Gene Therapy 8 668-676)."}},
  "data": [
    {"molecule": "CC(=O)N[C@H]1CSSC[C@@H](C(N)=O)NC(=O)[C@H](C(C)C)NC(=O)[C@H](C)NC(=O)[C@H](Cc2c[nH]cn2)NC1=O", "note": "[N—Ac—CHAVC—NH2, N-Ac-Cys-His-Ala-Val-Cys-NH2]", "values": [
      {"measurement": "gross or histopathological findings", "setting": "mice; intraperitoneally, 125 mg/kg, three consecutive days, sacrificed on the fourth day", "result": "No gross or histopathological findings related to the treatment were found"},
      {"measurement": "gross or histopathological findings", "setting": "mice; intraperitoneally, seven consecutive days, 20 mg/kg, sacrificed 24 hr after treatment", "result": "No gross or histopathological findings related to the treatment were found"},
      {"measurement": "mortality", "setting": "mice; intravenously, 200 mg/kg", "result": "no animals died during the study"},
      {"measurement": "gross or histopathological findings", "setting": "mice; intravenously, 200 mg/kg, sacrificed after 24 hours or 14-day recovery", "result": "no gross or histopathological findings related to the treatment were found"},
      {"measurement": "gross or histopathological findings", "setting": "Rat", "result": "no gross or histopathological findings related to the treatment"},
      {"measurement": "change in tumor volume", "setting": "SKOV3 tumors; 0.2 mg/kg once per day for 5 days", "result": "grew at a slower rate than tumors treated with saline"},
      {"measurement": "effect on tumor blood vessels and tumor growth", "setting": "SKOV3 tumors; 2 mg/kg intraperitoneally every day for 4 days, Von Willebrand Factor VIII stain", "result": "capable of damaging tumor blood vessels and stopping tumor growth in vivo"},
      {"measurement": "change in tumor volume", "setting": "SKOV3 tumors; 2 mg/kg once per day for 5 days", "result": "slight reduction in volume over the five day study"},
      {"measurement": "tumor growth / tumor size", "setting": "SKOV3 tumors; 20 mg/kg intraperitoneally every day for 4 consecutive days", "result": "prevents detectable tumor growth and results in a substantial decrease in tumor size"},
      {"measurement": "breast tumor growth", "setting": "[1]; once daily for four days", "result": "slow tumor growth"},
      {"measurement": "appearance of breast tumors (blood vessels)", "setting": "[1]; once daily for four days (20 mg/kg), 24 hours after last injection", "result": "extensive rupturing of blood vessels"},
      {"measurement": "reduction of vascular smooth muscle cell migration", "setting": "[2]; collagen", "result": "56±5", "unit": "%"},
      {"measurement": "reduction of vascular smooth muscle cell migration", "setting": "[2]; glass", "result": "53±8", "unit": "%"},
      {"measurement": "increase in apoptosis at wound edge", "setting": "[3]", "result": "3±1", "unit": "fold"}
    ]}
  ]
}
